Among the data in BindingDB's records for doi:10.1021/jm9703911 (Allergan, 1997) are Kd values, retold here.

Test [1] concerns the target T1, Retinoic acid receptor alpha (Homo sapiens, UniProt P10276).
T1 sequence (P10276 whole entry): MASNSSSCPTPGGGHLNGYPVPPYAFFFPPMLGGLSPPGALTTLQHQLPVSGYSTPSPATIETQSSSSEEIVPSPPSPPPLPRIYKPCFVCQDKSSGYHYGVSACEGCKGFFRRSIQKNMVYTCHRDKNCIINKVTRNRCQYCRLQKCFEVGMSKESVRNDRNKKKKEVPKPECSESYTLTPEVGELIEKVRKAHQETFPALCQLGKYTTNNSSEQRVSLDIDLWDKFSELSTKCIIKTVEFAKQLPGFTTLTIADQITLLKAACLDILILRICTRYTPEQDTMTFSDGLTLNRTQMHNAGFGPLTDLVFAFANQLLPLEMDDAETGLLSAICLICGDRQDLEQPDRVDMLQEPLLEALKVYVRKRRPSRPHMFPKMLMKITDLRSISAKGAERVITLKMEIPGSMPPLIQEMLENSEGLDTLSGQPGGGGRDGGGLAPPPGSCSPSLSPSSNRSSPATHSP
The test is described as follows: Inhibition of [3H]ATRA binding to baculovirus expressed RAR alpha receptor.

In test [2] the target is T2, Retinoic acid receptor beta (Homo sapiens, UniProt P10826).
T2 sequence (P10826 whole entry): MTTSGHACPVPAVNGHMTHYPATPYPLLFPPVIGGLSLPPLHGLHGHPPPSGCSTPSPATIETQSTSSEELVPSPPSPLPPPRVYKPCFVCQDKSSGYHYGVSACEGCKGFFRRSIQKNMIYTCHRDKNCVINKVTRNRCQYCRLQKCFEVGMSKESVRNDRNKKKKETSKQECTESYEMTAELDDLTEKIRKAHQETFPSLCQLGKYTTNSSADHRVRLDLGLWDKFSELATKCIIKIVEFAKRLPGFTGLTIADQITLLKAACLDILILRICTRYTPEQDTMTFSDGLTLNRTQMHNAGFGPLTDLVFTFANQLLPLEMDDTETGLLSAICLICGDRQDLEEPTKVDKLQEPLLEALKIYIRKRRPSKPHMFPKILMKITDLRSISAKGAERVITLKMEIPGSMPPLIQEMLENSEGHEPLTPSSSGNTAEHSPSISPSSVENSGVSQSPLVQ
Put plainly: Inhibition of [3H]-ATRA binding to baculovirus expressed RAR beta receptor.

Test [3] has as its target T3, Retinoic acid receptor gamma (Homo sapiens, UniProt P13631).
T3 sequence (P13631 whole entry): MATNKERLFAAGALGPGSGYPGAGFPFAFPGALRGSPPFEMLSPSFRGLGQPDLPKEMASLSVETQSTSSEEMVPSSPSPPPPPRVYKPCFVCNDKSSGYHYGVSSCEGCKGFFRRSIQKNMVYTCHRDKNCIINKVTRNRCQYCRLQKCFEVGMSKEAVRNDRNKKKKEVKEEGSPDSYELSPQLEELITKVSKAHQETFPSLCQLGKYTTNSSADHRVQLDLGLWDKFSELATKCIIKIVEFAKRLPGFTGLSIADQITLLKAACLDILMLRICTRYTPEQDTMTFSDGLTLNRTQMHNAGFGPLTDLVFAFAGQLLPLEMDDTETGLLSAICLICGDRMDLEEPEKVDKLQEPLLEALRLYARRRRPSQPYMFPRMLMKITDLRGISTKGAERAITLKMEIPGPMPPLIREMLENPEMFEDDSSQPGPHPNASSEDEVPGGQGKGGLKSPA
The test is described as follows: Inhibition of [3H]ATRA binding to baculovirus expressed RAR gamma receptor.

Usually Kd stands for the constant that tells how readily two partners part at equilibrium. Low values mean higher affinity, high ones lower affinity.

SMILES strings stand for the structures.

In the case of `Cc1ccc(C2=CCC(C)(C)c3ccc(C(=O)Nc4ccc(C(=O)O)c(F)c4)cc32)cc1`, the Kd in test [1] came to 5.7 nM; in test [2], 622 nM; in test [3], 863 nM.

For `Cc1ccc(C2=CCC(C)(C)c3ccc(C(=O)Nc4ccc(C(=O)O)cc4)cc32)cc1`, the Kd in test [1] stood at 27 nM; in test [2], 1020 nM; in test [3] it was 3120 nM.

For the molecule `Cc1ccc(C2=CC(C)(C)Oc3c(Br)cc(C(=O)Nc4cc(F)c(C(=O)O)c(F)c4)cc32)cc1`, the results for the Kd in test [1], in test [2] and in test [3] were 1.5 nM, 898 nM and 10600 nM, respectively.

Turning to `Cc1ccc(C2=CCC(C)(C)c3ccc(C(=O)Nc4cc(F)c(C(=O)O)c(F)c4)cc32)cc1`, the Kd is 32 nM in test [1], 2260 nM in test [2] and greater than 30000 nM in test [3].

In the case of `Cc1ccc(C2=CC(C)(C)Oc3c(Br)cc(C(=O)Nc4ccc(C(=O)O)c(F)c4)cc32)cc1`, the values for the Kd in test [1], in test [2] and in test [3] were 2.8 nM, 320 nM and 7260 nM, respectively.
